Source: PubChem BioAssay AID248 (DTP/NCI, 2004)
Several values for one entry are separate records, joined by “and”; a condition that tells them apart may be missing. Equal entries are not always repeated. Inconclusive results and toxic doses are left out. Cut-off read from the data, not from the text of the source: active = T/C of 150% or more; inactive = T/C below 125%.

System: L1210 leukemia ip in BDF1 mice, survival T/C
Test: NCI In Vivo Anticancer Drug Screen. Data for tumor model L1210 Leukemia (intraperitoneal) in B6D2F1 (BDF1) mice
Conditions: endpoint: mean survival time, higher = longer survival
Summary of the method: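 Mice bearing the transplanted tumor received compound or vehicle. Survival of the treated group was divided by that of the vehicle-treated control group to give the ratio.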

[1] = dose: 100.0 mg/kg/injection, schedule: Q04DX003 (ip), vehicle: saline with Tween-80
[2] = dose: 200.0 mg/kg/injection, schedule: Q04DX003 (ip), vehicle: saline with Tween-80
[3] = dose: 400.0 mg/kg/injection, schedule: Q04DX003 (ip), vehicle: saline with Tween-80
[4] = dose: 100.0 mg/kg/injection, schedule: Q01DX001 (ip), vehicle: carboxymethylcellulose (CMC)
[5] = dose: 200.0 mg/kg/injection, schedule: Q01DX001 (ip), vehicle: carboxymethylcellulose (CMC)
[6] = dose: 400.0 mg/kg/injection, schedule: Q01DX001 (ip), vehicle: carboxymethylcellulose (CMC)
[7] = dose: 100.0 mg/kg/injection, schedule: Q01DX009 (ip), vehicle: saline with Tween-80
[8] = dose: 200.0 mg/kg/injection, schedule: Q01DX009 (ip), vehicle: saline with Tween-80

Measured: T/C

Cc1cccc(C)c1N=Nc1cc[n+]([O-])cc1
inactive: dose: 6.25 mg/kg/injection, schedule: Q04DX003 (ip), vehicle: saline with Tween-80 92 % of control | dose: 12.5 mg/kg/injection, schedule: Q04DX003 (ip), vehicle: saline with Tween-80 95 % of control | dose: 25.0 mg/kg/injection, schedule: Q04DX003 (ip), vehicle: saline with Tween-80 102 % of control and 92 % of control | dose: 50.0 mg/kg/injection, schedule: Q04DX003 (ip), vehicle: saline with Tween-80 100 % of control

c1c[nH]c(Cc2ccc3ccccc3c2)c1
inactive: dose: 100.0 mg/kg/injection, schedule: Q01DX009 (ip), vehicle: other 110 % of control | dose: 100.0 mg/kg/injection, schedule: Q04DX003 (ip), vehicle: other 102 % of control | dose: 200.0 mg/kg/injection, schedule: Q01DX009 (ip), vehicle: other 97 % of control | dose: 200.0 mg/kg/injection, schedule: Q04DX003 (ip), vehicle: other 101 % of control | dose: 400.0 mg/kg/injection, schedule: Q01DX009 (ip), vehicle: other 110 % of control | dose: 400.0 mg/kg/injection, schedule: Q04DX003 (ip), vehicle: other 102 % of control

C=CN1CCCC1=O
inactive: dose: 100.0 mg/kg/injection, schedule: Q01DX001 (ip), vehicle: acetone 95 % of control | dose: 100.0 mg/kg/injection, schedule: Q01DX001 (ip), vehicle: saline 97 % of control | dose: 100.0 mg/kg/injection, schedule: Q04DX002 (ip), vehicle: saline 103 % of control | [1] 100 % of control | dose: 200.0 mg/kg/injection, schedule: Q01DX001 (ip), vehicle: acetone 95 % of control | dose: 200.0 mg/kg/injection, schedule: Q01DX001 (ip), vehicle: saline 92 % of control | dose: 200.0 mg/kg/injection, schedule: Q04DX002 (ip), vehicle: saline 103 % of control | [2] 92 % of control | dose: 400.0 mg/kg/injection, schedule: Q01DX001 (ip), vehicle: acetone 93 % of control | dose: 400.0 mg/kg/injection, schedule: Q04DX002 (ip), vehicle: saline 103 % of control | [3] 92 % of control | dose: 600.0 mg/kg/injection, schedule: Q01DX001 (ip), vehicle: saline 100 % of control | dose: 800.0 mg/kg/injection, schedule: Q01DX001 (ip), vehicle: saline 100 % of control | dose: 1000.0 mg/kg/injection, schedule: Q01DX001 (ip), vehicle: saline 106 % of control | dose: 1200.0 mg/kg/injection, schedule: Q01DX001 (ip), vehicle: saline 108 % of control | dose: 1.9 grams/kg/injection, schedule: Q01DX001 (iv), vehicle: saline 98 % of control | dose: 1.9 grams/kg/injection, schedule: Q01DX005 (iv), vehicle: saline 97 % of control | dose: 1.9 grams/kg/injection, schedule: Q04DX003 (iv), vehicle: saline 97 % of control | dose: 3.8 grams/kg/injection, schedule: Q01DX001 (ip), vehicle: saline 90 % of control | dose: 3.8 grams/kg/injection, schedule: Q01DX001 (iv), vehicle: saline 97 % of control | dose: 3.8 grams/kg/injection, schedule: Q01DX005 (ip), vehicle: saline 100 % of control | dose: 3.8 grams/kg/injection, schedule: Q01DX005 (iv), vehicle: saline 96 % of control | dose: 3.8 grams/kg/injection, schedule: Q01DX009 (ip), vehicle: saline 91 % of control | dose: 3.8 grams/kg/injection, schedule: Q03HX008 (ip), vehicle: saline 97 % of control | dose: 3.8 grams/kg/injection, schedule: Q03HX016 (ip), vehicle: saline 98 % of control | dose: 3.8 grams/kg/injection, schedule: Q03HX024 (ip), vehicle: saline 101 % of control | dose: 3.8 grams/kg/injection, schedule: Q04DX003 (ip), vehicle: saline 101 % of control | dose: 3.8 grams/kg/injection, schedule: Q04DX003 (iv), vehicle: saline 94 % of control | dose: 3.8 grams/kg/injection, schedule: Q08DX002 (ip), vehicle: saline 97 % of control | dose: 7.5 grams/kg/injection, schedule: Q01DX001 (ip), vehicle: saline 93 % of control | dose: 7.5 grams/kg/injection, schedule: Q01DX001 (iv), vehicle: saline 97 % of control | dose: 7.5 grams/kg/injection, schedule: Q01DX005 (ip), vehicle: saline 103 % of control | dose: 7.5 grams/kg/injection, schedule: Q01DX005 (iv), vehicle: saline 93 % of control | dose: 7.5 grams/kg/injection, schedule: Q01DX009 (ip), vehicle: saline 97 % of control | dose: 7.5 grams/kg/injection, schedule: Q03HX008 (ip), vehicle: saline 96 % of control | dose: 7.5 grams/kg/injection, schedule: Q03HX016 (ip), vehicle: saline 95 % of control | dose: 7.5 grams/kg/injection, schedule: Q03HX024 (ip), vehicle: saline 103 % of control | dose: 7.5 grams/kg/injection, schedule: Q04DX003 (ip), vehicle: saline 98 % of control | dose: 7.5 grams/kg/injection, schedule: Q04DX003 (iv), vehicle: saline 92 % of control | dose: 7.5 grams/kg/injection, schedule: Q08DX002 (ip), vehicle: saline 98 % of control | dose: 15.0 grams/kg/injection, schedule: Q01DX001 (ip), vehicle: saline 88 % of control | dose: 15.0 grams/kg/injection, schedule: Q01DX005 (ip), vehicle: saline 102 % of control | dose: 15.0 grams/kg/injection, schedule: Q01DX009 (ip), vehicle: saline 96 % of control | dose: 15.0 grams/kg/injection, schedule: Q04DX003 (ip), vehicle: saline 95 % of control | dose: 15.0 grams/kg/injection, schedule: Q08DX002 (ip), vehicle: saline 94 % of control

O=c1ccccn1C/C(=N\O)c1ccccc1
inactive: dose: 100.0 mg/kg/injection, schedule: Q01DX009 (ip), vehicle: Klucel (hydroxypropylcellulose) (HPC) 98 % of control | dose: 100.0 mg/kg/injection, schedule: Q04DX003 (ip), vehicle: Klucel (hydroxypropylcellulose) (HPC) 107 % of control | dose: 200.0 mg/kg/injection, schedule: Q01DX009 (ip), vehicle: Klucel (hydroxypropylcellulose) (HPC) 100 % of control | dose: 200.0 mg/kg/injection, schedule: Q04DX003 (ip), vehicle: Klucel (hydroxypropylcellulose) (HPC) 98 % of control | dose: 400.0 mg/kg/injection, schedule: Q01DX009 (ip), vehicle: Klucel (hydroxypropylcellulose) (HPC) 107 % of control | dose: 400.0 mg/kg/injection, schedule: Q04DX003 (ip), vehicle: Klucel (hydroxypropylcellulose) (HPC) 100 % of control

CCCCCCc1cc(N=Nc2ccc(S(=O)(=O)Nc3nccs3)cc2)c(O)cc1O
inactive: [4] 95 % of control | [5] 98 % of control | [6] 95 % of control

CCCCCCCCC1SC(=S)NC1CCCCCCCC(=O)OC (stereo not given)
inactive: dose: 100.0 mg/kg/injection, schedule: Q04DX002 (ip), vehicle: saline with Tween-80 96 % of control | dose: 200.0 mg/kg/injection, schedule: Q04DX002 (ip), vehicle: saline with Tween-80 100 % of control | dose: 400.0 mg/kg/injection, schedule: Q04DX002 (ip), vehicle: saline with Tween-80 100 % of control

Cl[Si](Cl)(Cl)CCc1ccccc1
inactive: dose: 25.0 mg/kg/injection, schedule: Q01DX009 (ip), vehicle: saline 104 % of control | dose: 50.0 mg/kg/injection, schedule: Q01DX009 (ip), vehicle: saline 101 % of control | dose: 100.0 mg/kg/injection, schedule: Q01DX009 (ip), vehicle: saline 90 % of control

O=C(O)/C=C/c1ccc(/C=C/C(=O)O)cc1
inactive: [7] 95 % of control | [1] 98 % of control | [8] 88 % of control | [2] 96 % of control | dose: 400.0 mg/kg/injection, schedule: Q01DX009 (ip), vehicle: saline with Tween-80 103 % of control | [3] 95 % of control

O=C1c2ccccc2Cc2ccc(-c3ccccc3)cc21
inactive: dose: 50.0 mg/kg/injection, schedule: Q01DX009 (ip), vehicle: saline with Tween-80 92 % of control | [7] 95 % of control | [8] 89 % of control

CCN(CC)CCC(O)c1cc(-c2ccc(Cl)cc2)nc2ccc(OC)cc12 (stereo not given)
inactive: [4] 94 % of control | dose: 100.0 mg/kg/injection, schedule: Q04DX003 (ip), vehicle: carboxymethylcellulose (CMC) 104 % of control | [5] 92 % of control | dose: 200.0 mg/kg/injection, schedule: Q04DX003 (ip), vehicle: carboxymethylcellulose (CMC) 114 % of control | [6] 94 % of control | dose: 400.0 mg/kg/injection, schedule: Q04DX003 (ip), vehicle: carboxymethylcellulose (CMC) 110 % of control
